Results from US20230333121A1, “METHODS AND COMPOSITIONS RELATING TO BIOMARKERS FOR NEURODEGENERATIVE DISEASES” (ANACALYPSIS THERAPEUTICS, IKE, priority 2020, published 2023).

Molecular target: T1, pS935-LRRK2 (Homo sapiens, UniProt Q5S007)
T1 construct: fresh PBMCs from healthy volunteer donors; endogenous in cells; host or cells: fresh and cryopreserved PBMCs from healthy volunteer donors
Test: pS935-LRRK2 ELISA on freshly isolated PBMCs from healthy volunteers
Format: cell-based
Conditions: increasing concentrations, 1 hour (FIG. 3C)
Procedure: Phosphorylation of LRRK2 at the Ser935 residue by ELISA was assessed. For each sample, the signal corresponding to pS935-LRRK2 was normalized to its corresponding value of total LRRK2 (in ng/ml). Increasing amounts of recombinant human full-length LRRK2 was bound to parallel ELISA plates using the c41-2 clone for capture, and detected using total (N241A; for normalization) or phosphorylated (pS935-LRRK2, UDD2) antibodies (FIG. 3A). […] Freshly isolated PBMCs from healthy volunteers were treated with increasing concentrations of the kinase inhibitor PF-475 for 1 hour, and subjected to pS935-LRRK2 ELISA (FIG. 3C). […] In contrast, in PBMC extracts from carriers of the G2019S mutation, with and without PD, there was a non-significant trend towards lower levels of pS935-LRRK2 compared to healthy controls (FIG. 3E). The values of all G2019S carriers are pooled for comparison against healthy controls (FIG. 3F). Levels of pS935-LRRK2 and various clinical parameters were compared (FIG. 3G). In iPD patients, there was no correlation between pS935-LRRK2 and the motor function scale UPDRS-III (not shown); however, performance on the cognitive function test, MoCA, was negatively correlated with pS935-LRRK2 levels in iPD patients (FIG. 3G; right panel) and healthy controls (FIG. 3G; center panel).

T1 sequence (Q5S007 whole entry): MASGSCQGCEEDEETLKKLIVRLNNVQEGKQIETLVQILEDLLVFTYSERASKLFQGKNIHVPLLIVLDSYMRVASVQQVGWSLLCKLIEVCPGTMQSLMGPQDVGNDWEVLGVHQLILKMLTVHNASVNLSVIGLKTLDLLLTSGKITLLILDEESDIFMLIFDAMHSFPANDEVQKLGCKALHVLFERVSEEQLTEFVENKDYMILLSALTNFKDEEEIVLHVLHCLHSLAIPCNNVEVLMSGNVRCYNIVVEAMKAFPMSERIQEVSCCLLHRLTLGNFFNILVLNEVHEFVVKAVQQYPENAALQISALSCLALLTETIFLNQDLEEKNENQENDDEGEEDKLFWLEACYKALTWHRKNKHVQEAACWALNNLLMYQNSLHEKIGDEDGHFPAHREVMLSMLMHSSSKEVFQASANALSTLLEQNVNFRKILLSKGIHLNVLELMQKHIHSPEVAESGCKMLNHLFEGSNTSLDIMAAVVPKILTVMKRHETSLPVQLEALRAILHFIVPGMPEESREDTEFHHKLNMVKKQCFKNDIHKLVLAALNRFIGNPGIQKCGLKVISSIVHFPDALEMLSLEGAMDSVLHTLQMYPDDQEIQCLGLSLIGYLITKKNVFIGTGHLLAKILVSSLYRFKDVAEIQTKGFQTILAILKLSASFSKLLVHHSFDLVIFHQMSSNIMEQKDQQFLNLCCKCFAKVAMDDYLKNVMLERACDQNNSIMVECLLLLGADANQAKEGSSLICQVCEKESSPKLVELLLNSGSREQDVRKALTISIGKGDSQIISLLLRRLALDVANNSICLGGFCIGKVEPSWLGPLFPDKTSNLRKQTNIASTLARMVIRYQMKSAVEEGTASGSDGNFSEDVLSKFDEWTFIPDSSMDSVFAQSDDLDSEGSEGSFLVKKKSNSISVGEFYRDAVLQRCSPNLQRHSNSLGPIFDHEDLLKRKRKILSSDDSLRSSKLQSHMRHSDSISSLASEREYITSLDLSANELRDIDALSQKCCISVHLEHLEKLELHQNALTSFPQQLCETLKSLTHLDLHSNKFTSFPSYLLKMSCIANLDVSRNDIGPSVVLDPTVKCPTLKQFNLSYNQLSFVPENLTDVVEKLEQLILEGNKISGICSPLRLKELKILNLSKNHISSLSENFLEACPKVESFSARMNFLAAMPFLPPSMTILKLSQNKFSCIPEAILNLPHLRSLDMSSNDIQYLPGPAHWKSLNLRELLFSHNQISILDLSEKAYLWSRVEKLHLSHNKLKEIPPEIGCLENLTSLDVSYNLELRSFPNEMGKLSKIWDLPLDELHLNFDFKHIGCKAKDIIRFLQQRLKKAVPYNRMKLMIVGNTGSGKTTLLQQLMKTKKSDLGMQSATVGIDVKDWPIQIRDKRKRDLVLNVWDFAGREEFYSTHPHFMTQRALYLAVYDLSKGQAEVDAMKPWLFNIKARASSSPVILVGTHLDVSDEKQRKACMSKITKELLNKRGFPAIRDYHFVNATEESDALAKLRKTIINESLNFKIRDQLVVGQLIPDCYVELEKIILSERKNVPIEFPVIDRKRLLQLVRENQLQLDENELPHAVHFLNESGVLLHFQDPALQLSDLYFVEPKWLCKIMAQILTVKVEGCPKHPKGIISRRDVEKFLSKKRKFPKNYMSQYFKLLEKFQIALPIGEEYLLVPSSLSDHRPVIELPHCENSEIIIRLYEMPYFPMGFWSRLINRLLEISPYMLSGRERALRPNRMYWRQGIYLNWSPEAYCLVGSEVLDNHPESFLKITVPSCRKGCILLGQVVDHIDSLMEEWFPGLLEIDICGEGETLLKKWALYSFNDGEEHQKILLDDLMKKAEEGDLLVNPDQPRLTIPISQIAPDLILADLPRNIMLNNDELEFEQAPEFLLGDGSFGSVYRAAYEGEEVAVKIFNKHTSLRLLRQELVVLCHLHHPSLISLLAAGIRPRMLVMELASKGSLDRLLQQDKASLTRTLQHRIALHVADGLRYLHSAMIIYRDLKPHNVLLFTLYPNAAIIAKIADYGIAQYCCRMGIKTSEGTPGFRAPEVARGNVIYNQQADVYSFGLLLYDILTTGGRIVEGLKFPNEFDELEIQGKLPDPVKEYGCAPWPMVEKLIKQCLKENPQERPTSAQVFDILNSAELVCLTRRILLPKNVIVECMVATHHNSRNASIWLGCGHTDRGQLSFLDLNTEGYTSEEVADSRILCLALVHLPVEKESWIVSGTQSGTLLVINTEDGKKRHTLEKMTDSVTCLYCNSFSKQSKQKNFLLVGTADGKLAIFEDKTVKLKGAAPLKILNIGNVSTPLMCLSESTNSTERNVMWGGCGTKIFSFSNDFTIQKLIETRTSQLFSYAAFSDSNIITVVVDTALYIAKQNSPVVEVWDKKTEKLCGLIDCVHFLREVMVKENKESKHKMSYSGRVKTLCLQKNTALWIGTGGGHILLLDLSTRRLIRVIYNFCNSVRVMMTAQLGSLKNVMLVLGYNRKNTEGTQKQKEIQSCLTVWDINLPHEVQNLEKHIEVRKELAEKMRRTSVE

phosphorylated LRRK2 (pS935-LRRK2) level: significant dose-dependent loss
SMILES: N#Cc1cccc(-c2c[nH]c3ncnc(N4CCOCC4)c23)c1 [PF-475]
